Measured values as given in patent publication EP1572665B1, “1-N-PHENYLAMINO-1H-IMIDAZOLE DERIVATIVES AS AROMATASE INHIBITORS” (LABORATOIRE THERAMEX, priority 2002, dated 2004).
Where a name gives a salt, the structure may show the parent alone.

Legend:
aromatase = target: T1, aromatase (Rattus norvegicus, UniProt P22443); experiment: Inhibition of aromatase in vivo (inhibition of the preovulatory surge of plasma estradiol levels); details: adult female Wistar rats, single oral administration of 10 micrograms/kg on diestrus, plasma estradiol 24 hours later, vs vehicle controls, n = number of independent studies; for inhibition at 0.01 mg/kg: rat, read-out: % inhibition at 10 µg/kg
T1 construct: In the rat, estradiol is physiologically synthesized to high circulating levels; from tissue; host or cells: whole animal: adult female Wistar rats (endogenous aromatase)
T1 sequence (P22443 1-508): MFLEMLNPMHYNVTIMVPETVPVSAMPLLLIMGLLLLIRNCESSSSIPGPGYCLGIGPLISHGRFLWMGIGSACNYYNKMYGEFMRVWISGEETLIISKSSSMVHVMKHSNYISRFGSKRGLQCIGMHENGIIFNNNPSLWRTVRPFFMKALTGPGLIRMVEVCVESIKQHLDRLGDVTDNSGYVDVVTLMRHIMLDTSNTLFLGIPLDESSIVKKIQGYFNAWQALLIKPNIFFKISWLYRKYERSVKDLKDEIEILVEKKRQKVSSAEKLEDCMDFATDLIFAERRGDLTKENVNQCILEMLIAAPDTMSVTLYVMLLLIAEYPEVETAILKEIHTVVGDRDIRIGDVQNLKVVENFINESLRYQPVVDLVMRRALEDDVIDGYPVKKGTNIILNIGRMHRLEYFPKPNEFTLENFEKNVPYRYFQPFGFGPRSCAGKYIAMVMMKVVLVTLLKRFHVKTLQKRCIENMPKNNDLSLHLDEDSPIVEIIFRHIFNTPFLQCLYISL
From the text: Aromatase is the steroidogenic enzyme responsible for the biosynthesis of estradiol, the main female sex hormone among estrogens. In the rat, estradiol is physiologically synthesized to high circulating levels in a particular period during the 4-day estrous cycle : it is the so-called preovulatory surge taking place in the afternoon of proestrus, just before ovulation which occurs during the night between proestrous and estrous phases. A sensitive physiological model for in vivo evaluation of aromatase inhibition was developped based on the inhibition of this preovulatory surge of estradiol levels.
Adult female Wistar rats are monitored for regular 4-day estrous cyclicity by daily vaginal smear examination; after 2 or 3 regular cycles, animals are treated by a single oral administration of the very low discriminative dose of 10 micrograms/kg in a 4 ml/kg volume around 04:00 PM on diestrus, i.e. on the day before proestrus. Precisely 24 hours later, aortic blood samples are drawn under gaseous anesthesia. Plasma estradiol levels are measured by radioimmunoassay with commercially available kits (Diagnostic Systems Laboratories, Webster, Texas, U. S. A.). Control and test groups usually consist of 7 to 10 rats, depending on the number of regularly cycling rats to distribute among study groups. Results are expressed in pg/ml and then in % of inhibition taking the estradiol levels of control animals receiving only the oral vehicle as the 100 % reference to allow comparisons between different independent studies, since the preovulatory surge level may vary in each control group from one study to another between about 25 to 40 pg/ml. Table B : Inhibition of aromatase in vivo

human aromatase = target: T2, human aromatase (Homo sapiens, UniProt P11511); experiment: Inhibition of human aromatase in vitro in JEG-3 cells (3H-water release from 1β-3H-androstenedione); assay type: cell-based; details: JEG-3 cell line; 1β-3H-androstenedione 10 nM; 2 hours incubation; mean ± sem
T2 construct: The JEG-3 cell line, derived from a human placental choriocarcinoma, is intrinsically very rich in human aromatase; endogenous in cells; host or cells: JEG-3 (human placental choriocarcinoma)
T2 sequence (P11511 1-503): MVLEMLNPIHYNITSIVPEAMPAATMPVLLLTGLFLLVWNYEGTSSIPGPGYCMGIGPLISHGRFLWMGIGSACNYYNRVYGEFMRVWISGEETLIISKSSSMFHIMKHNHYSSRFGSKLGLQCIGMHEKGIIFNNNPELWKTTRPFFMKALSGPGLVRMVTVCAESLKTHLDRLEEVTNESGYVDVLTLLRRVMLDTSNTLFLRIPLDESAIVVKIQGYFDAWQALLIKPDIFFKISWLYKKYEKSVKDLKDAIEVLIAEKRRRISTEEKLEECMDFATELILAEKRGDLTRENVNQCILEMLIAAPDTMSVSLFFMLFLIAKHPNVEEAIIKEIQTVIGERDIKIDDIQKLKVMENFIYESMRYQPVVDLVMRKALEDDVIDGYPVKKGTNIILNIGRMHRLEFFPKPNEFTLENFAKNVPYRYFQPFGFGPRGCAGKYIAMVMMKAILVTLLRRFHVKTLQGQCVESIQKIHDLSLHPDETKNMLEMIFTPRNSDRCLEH
Procedure: Stocks of JEG-3 cells are grown up to 80 % of confluence as monolayers in plastic flasks in minimum Eagle's medium with 1 g/l glucose and 10 % decomplemented fetal calf serum at pH 7.4 and 37° C, under a 5 % CO2 atmosphere. Then, 24 hours before aromatase activity measurement, JEG-3 cells are distributed for seeding in 96-well microplates (60,000 to 100,000 viable cells in 100 µl of culture medium per well) ; 24 hours later, microplates are rinsed and fresh medium containing the radioactive aromatase substrate (1β-^3H-androstenedione, 10 nM) is added together with test compounds dissolved with 1 % dimethylsulfoxide in a test concentration range between 10^-11 and 10^-4 M in a total volume of 150 µl.
Two hours after the beginning of the incubation, 100 µl of the supernatants are transferred to homologous new 96-well microplates. A solution of dextran-coated charcoal (1 %) is added in each well (100 µl/well) ; after standing for 10 minutes on ice, microplates are centrifuged (1500 g) for 10 more minutes at 4° C. All steroids, including the radioactive substrate and the newly biosynthesized estrogens, are trapped complexed by the charcoal ; only ^3H-water specifically formed during aromatisation of 1β-^3H-androstenedione, involving a specific oxidative step removing the 1β-^3H, remains in the supernatant at this stage. […]

| inhibition at 0.01 mg/kg (aromatase) [%] | IC50 (human aromatase) [pM] | % inhibition at 10 µg/kg (aromatase) [%] | SMILES |
| --- | --- | --- | --- |
| 60 |  |  | N#Cc1ccc(N(Cc2ccc(F)c(F)c2)n2ccnc2)cc1 [Example 17, 4-[N-(1H-imidazol-l-yl)-N-(3,4-difluorophenylmethyl)amino]benzonitrile] |
| 57 |  |  | N#Cc1ccc(N(Cc2ccc(C(F)(F)F)cc2)n2ccnc2)cc1 [Example 6, 4-[N-(1H-imidazol-1-yl)-N-(4-trifluoromethylphenylmethyl)amino]-benzonitrile] |
| 57 to 59 |  |  | N#Cc1ccc(CN(c2ccc(C#N)cc2)n2ccnc2)cc1 [Example 11, 4-[N-(1H-imidazol-1-yl)-N-(4-cyanophenylmethyl)amino]benzonitrile, hydrochloride] |
| 47 |  |  | N#Cc1ccc(N(Cc2ccc(Cl)cc2)n2ccnc2)cc1 [Example 7, 4-[N-(1H-imidazol-1-yl)-N-(4-chlorophenylmethyl)amino]benzonitrile, hydrochloride] |
|  | 300 ± 40 | 35 | N#Cc1ccc(N(Cc2ccc(Br)cc2)n2cnnc2)cc1 [YM 511, reference compound] |

| SMILES | inhibition at 0.01 mg/kg (aromatase) [%] | IC50 (human aromatase) [pM] | % inhibition at 10 µg/kg (aromatase) [%] |
| --- | --- | --- | --- |
| N#Cc1ccc(N(Cc2ccc(F)cc2)n2ccnc2)cc1 [Example 14, 4-[N-(1H-imidazol-1-yl)-N-(4-fluorophenylmethyl)amino]benzonitrile, hydrochloride hemihydrate] | 49 to 57 |  |  |
| CC(C)(C#N)c1cc(Cn2cncn2)cc(C(C)(C)C#N)c1 [Anastrozole, anastrozole, reference compound] | 18 to 33 |  |  |
